The results in this text go back to DBAASP.

The term MIC denotes the lowest concentration found to suppress growth. Higher therefore signals weaker potency.

≈ marks a conversion by molar mass, not a printed value. Where “and” joins values, the source holds several entries; their conditions need not be identical. Equal values may be shown once.

Among the test systems are Escherichia coli D21; Candida parapsilosis; Candida albicans 01U; Candida albicans 38U; Trichophyton rubrum.
Assay in all cases: ≥ marks a high value that may be exact or a test limit, other limits are often not marked, values filed in µg/mL are converted to µM
Experiment [1] concerns Escherichia coli ATCC 25922.
Experiment [2] has as its system Acinetobacter baumannii ATCC 19606.
Experiment [3] relates to Aspergillus fumigatus ATCC 26430.
Experiment [4] relates to Pseudomonas aeruginosa ATCC 27853.
Experiment [5] concerns Staphylococcus aureus II ATCC 6538P.
The test system of experiment [6] is Enterococcus faecalis ATCC 19433.
Experiment [7] deals with Staphylococcus aureus DBFIQ S21.
For experiment [8], the system named is Listeria monocytogenes DBFIQ LM3.
Experiment [9] relates to Clavibacter michiganensis subsp. michiganensis DSM 46294.
Experiment [10] has as its system Pseudomonas corrugata DSM 7228.
Experiment [11] concerns Pseudomonas syringae pv. syringae DSM 10604.
Experiment [12] deals with Pectobacterium carotovorum subsp. carotovorum DSM 30168.
Experiment [13] concerns Xanthomonas vesicatoria DSM 50861.
Experiment [14] has as its system Pseudomonas syringae pv. tomato DC3000.
Experiment [15] relates to Staphylococcus aureus 90857.
The test system of experiment [16] is Trichophyton mentagrophytes.
Experiment [17] deals with Cryptococcus neoformans L30.
Experiment [18] deals with Cryptococcus neoformans L26.

As to `CC(C)C[C@H](NC(=O)[C@H](CCCN=C(N)N)NC(=O)[C@H](CCCN=C(N)N)NC(=O)[C@H](CC(C)C)NC(=O)[C@H](CC(C)C)NC(=O)[C@H](CCCN=C(N)N)NC(=O)[C@H](CCCN=C(N)N)NC(=O)[C@H](CC(C)C)NC(=O)[C@H](CC(C)C)NC(=O)[C@H](CCCN=C(N)N)NC(=O)[C@H](CCCN=C(N)N)NC(=O)[C@H](CC(C)C)NC(=O)[C@H](C)NC(=O)[C@H](CC(=O)O)NC(=O)[C@@H](N)CC(=O)O)C(=O)O` [DDALRRLLRRLLRRL], the minimal inhibitory concentration (MIC) in [1] is 100 µM (≈ 194 µg/mL); in experiment [2] it was 75 µM and 100 µM; in the experiment on Escherichia coli D21, not below 50 µM; in experiment [3], 6.2 µM and 3.1 µM; in experiment [4], 50 µM (≈ 96.8 µg/mL); in experiment [5], ≥ 50 µM and 31 µM. The MIC in experiment [6] was not below 100 µM.
Regarding `CC[C@H](C)[C@H](NC(=O)[C@H](C)NC(=O)[C@@H](NC(=O)[C@H](C)NC(=O)CN)[C@@H](C)O)C(=O)N[C@@H](CCCCN)C(=O)N[C@@H](CCC(N)=O)C(=O)N[C@H](C(=O)N[C@@H](CCCCN)C(=O)N[C@@H](CCCCN)C(=O)N[C@@H](CC(C)C)C(=O)N[C@@H](Cc1ccccc1)C(=O)N[C@@H](CCCCN)C(=O)N[C@@H](CCCCN)C(=O)N[C@@H](CCCCN)C(=O)NCC(=O)NCC(N)=O)C(C)C` [GATAIKQVKKLFKKKGG], the MIC in [7] was 8.9 µM (≈ 16 µg/mL); in experiment [8] it was 17.8 µM (≈ 32.1 µg/mL).
In the case of `CC[C@H](C)[C@H](NC(=O)[C@H](CCCN=C(N)N)NC(=O)[C@@H](N)CC(C)C)C(=O)N[C@@H](CC(C)C)C(=O)N[C@@H](CCCN=C(N)N)C(=O)N[C@@H](CCCN=C(N)N)C(=O)N[C@@H](CC(C)C)C(=O)N[C@@H](CC(C)C)C(=O)N[C@@H](CCCN=C(N)N)C(=O)N[C@@H](CCCN=C(N)N)C(=O)N[C@@H](CC(C)C)C(=O)N[C@@H](Cc1ccccc1)C(N)=O` [LRILRRLLRRLF], the MIC in experiment [9] was 3.08 µM (≈ 5 µg/mL); in experiment [10] it was 1.54 µM (≈ 2.5 µg/mL); in [11] it was 6.15 µM (≈ 9.99 µg/mL); in experiment [12] it was 6.15 µM (≈ 9.99 µg/mL); in [13], 3.08 µM (≈ 5 µg/mL); in experiment [14], 0.615 µM (≈ 0.999 µg/mL). Further, the minimal inhibitory concentration (MIC) in experiment [15] was 6.25 µM (≈ 10.2 µg/mL).
Take `CC[C@H](C)[C@H](NC(=O)[C@H](CC(C)C)NC(=O)[C@H](CCC(=O)O)NC(=O)[C@H](CO)NC(=O)[C@H](CCCN=C(N)N)NC(=O)[C@@H](N)CO)C(=O)N[C@H](C(=O)N[C@@H](Cc1cnc[nH]1)C(=O)N[C@@H](CCC(N)=O)C(=O)N[C@@H](CCCN=C(N)N)C(N)=O)C(C)C` [SRSELIVHQR]: the MIC in the experiment with Candida parapsilosis is not below 209 µM; against Candida albicans 01U it was not below 52.3 µM; against Candida albicans 38U, 26.1 µM (≈ 32 µg/mL); in experiment [16] it was not below 209 µM; in [17] it was not below 209 µM; in [18] it was not below 105 µM. In the experiment on Trichophyton rubrum, the minimal inhibitory concentration (MIC) came to 26.1 µM (≈ 32 µg/mL).
